According to patent US20020120098A1, “Enhanced stimulation of erythropoiesis” (priority 1996, published 2002):
“Also recorded” adds a separate entry of the source.

Key:
Assay type in all cases: cell-based, human
BFU-E = experiment: Colony formation assay, CD34+/CD38- and CD34+/CD33- enriched cord blood cells: BFU-E; settings: 2 U/ml Epo, 5% O2, 14 days; vs untreated controls under same conditions
Text: CD34^+/CD38^− cells were isolated from cord blood LDMNC using the STEMSEP™ system (StemCell Technologies Inc., Vancouver, Canada). The CD34^+/CD38^− cell purity was increased from <0.1% in unfractionated LDMNC to ˜81% CD34^+/CD38^− cells post fractionation as determined by flow cytometry. To obtain the CD34^+/CD33^− cells CD34^+ cells were first isolated from cord blood LDMNC using the CEPRATE™ LC system (CellPro Inc., Bothell, Wash.). The CD34^+/CD33^− fraction was then enriched to ˜94% purity by flow fluorescence activated cell sorting (FACS; Epics Elite, Coulter Electronics, Hialeah, Fla.). The colony formation assay was conducted as described in Examples 1-4, except that 1×10^3 CD34^+ cells/ml were plated versus 1×10^3 unfractionated cord blood LDMNC/ml normally plated. Mean fold increase in BFU-E and CFU-E progenitor number produced from CD34^+ CD38^− enriched (a; n=2) and CD34^+ CD33^− enriched (b; n=1) cord blood LDMNC stimulated by 1.0 mg/ml HAo (15.6 μM) or HEMOLINK™ (15.6 μM), 100 μM hemin 250 μM FeCl3 in the presence of 2 U/ml Epo is shown in FIG. 13. Cultures were maintained at 5% O2 for 14 days. The results are expressed relative cells treated only with the respective vehicles and cultured under the same conditions.

erythroid progenitors = experiment: Colony formation assay, adult peripheral blood LDMNC: erythroid progenitors overall; settings: for growth of erythroid progenitors in the absence of Epo, adult blood: 0 U/ml Epo; for erythroid progenitor number, adult blood, 5% O2 and 0.2 U/ml Epo (in words): 5% O2, 0.2 U/ml Epo, over untreated controls under the same conditions
Experimental: Blood was collected with informed consent from the antecubital vein of healthy adult human volunteers into vacutainers containing 143 USP U/ml sodium heparin. Low density mononuclear cells (LDMNC) were isolated by centrifugation over a density gradient as described in Example 1. Plastic adherent cells were removed by an overnight incubation in a tissue culture flask and the non-adherent cells were placed directly in a CFA. Conditions for the CFA are similar to those described in Examples 1-4.
Mean fold increase in adult blood BFU-E, CFU-E and CFU-GM progenitor number in the presence of reduced Epo (0.2 U/ml) (n=3) at 20% O2 is shown in FIG. 11 with and without (no addition) the additives used in FIG. 9. Results are expressed relative to control cells at 2 U/ml Epo treated only with the respective vehicles (solid line at fold expansion=1.0). […] As with cord blood, CFU-GM numbers were unaffected by reductions in Epo. The addition of HAo or HEMOLINK™ to CFAs containing 0.2 U/ml Epo stimulated ˜4.5- and ˜3.5-fold increases in BFU-E and CFU-E, respectively, compared to untreated controls (no addition), restoring the progenitor number to that obtained at 2 U/ml Epo. Hemin stimulated the greatest increase in BFU-E and CFU-E (˜9- and ˜6-fold, respectively) at 0.2 U/ml Epo versus the untreated controls (no addition). FeCl3 stimulated only a ˜2-fold increase in erythroid progenitor number at 0.2 U/ml Epo.
Mean fold increase in adult blood BFU-E, CFU-E and CFU-GM progenitor number at 5% O2 in the presence of reduced Epo (0.2 U/ml) (n=3) is shown in FIG. 12 with and without the additives used in FIG. 9. Results are expressed relative to control cells at 2 U/ml Epo treated only with the respective vehicles and cultured at ambient oxygen tensions (˜20% O2) for 14 days (solid line at fold expansion=1.0). The number of erythroid progenitors stimulated at 5% O2 and 0.2 U/ml Epo was similar to that obtained with 2.0 U/ml Epo maintained at ambient oxygen tensions (no addition).

[1] = tested on: total erythroid progenitors (BFU-E+CFU-E); experiment: Inhibition of succinylacetone (SA) toxicity to erythroid progenitors in CFA; settings: 0.5 mM SA; 100 μM hemin, 15.6 μM HAo or HEMOLINK, 250 μM FeCl3; ambient O2, 14 days
Experimental: The effect of the various additives on the inhibitory effect of succinylacetone (SA), a heme synthesis inhibitor, on erythroid progenitors was determined. Primary LDMNC were cultured in methyl cellulose as described in Example 1. Cord blood LDMN were plated in the presence of 1.0 mg/ml HAo (15.6 μM; n=12) or HEMOLINK™ (15.6 μM; n=5), 100 μM hemin (n=12), 250 μM FeCl3 (n=11) or no addition (n=12), in absence or presence of 0.5 mM SA. Cultures were maintained in a humidified chamber at 37° C., 5% CO2, and ambient oxygen tensions for 14 days.
Results are expressed as the number of total erythroid progenitors (BFU-E+CFU-E) present on plates treated with the various additives in the presence of SA relative to the number present on untreated plates (no SA or other addition). Significant differences in the presence of the respective additives compared to no addition (SA only; relative progenitor number=0.31) are as indicated: *p<0.001, **p<0.0001. Significant differences in the presence of the respective additives compared to no treatment (no SA; solid line at relative erythroid progenitor number=1.0) are as indicated: +p<0.05, ++p<0.001.

CFU-E = experiment: Colony formation assay (CFA), cord blood LDMNC: CFU-E colonies; settings: 5% O2, 0.2 U/ml Epo; 100 μM hemin, 1.0 mg/ml HAo or HEMOLINK; relative to controls at 2 U/ml Epo, ambient O2

## [Cl][Fe]([Cl])[Cl] [FeCl3]
BFU-E
  increase in BFU-E from CD34+ enriched progenitor populations (in words): to a lesser extent
Erythroid progenitors
  growth of erythroid progenitors in the absence of Epo, adult blood: could not support the growth of erythroid progenitors in the absence of Epo
Erythroid progenitors; 0.2 U/ml Epo, ~20% O2, 250 μM FeCl3
  fold increase in erythroid progenitor number, adult blood, 0.2 U/ml Epo: ~2 fold
[1]
  reversal of inhibitory effect of SA on erythroid progenitors (in words): less effective than lower concentrations of hemoglobin; also recorded: unable to overcome the inhibitory effect of SA

## C=CC1=C(C)C2=Cc3c(C=C)c(C)c4[n]3[Fe-2]35([Cl])[n]6c(c(C)c(CCC(=O)O)c6=CC6=[N+]3C(=C4)C(C)=C6CCC(=O)O)=CC1=[N+]25 [hemin]
BFU-E
  increase in BFU-E from CD34+ enriched progenitor populations (in words): stimulated an increase in BFU-E
Erythroid progenitors
  growth of erythroid progenitors in the absence of Epo, adult blood: could not support the growth of erythroid progenitors in the absence of Epo
  erythroid progenitor number, adult blood, 5% O2 and 0.2 U/ml Epo (in words): stimulated further increases in erythroid progenitor number
CFU-E
  fold increase in CFU-E at 0.2 U/ml Epo and 5% O2: 3.2 fold
[1]
  reversal of inhibitory effect of SA on erythroid progenitors (in words): able to completely overcome the SA inhibition of erythroid colonies; also recorded: able to overcome the inhibitory effect of SA

## HAo: adult human hemoglobin obtained from red blood cells and purified by displacement chromatography; uncross linked product
BFU-E
  increase in BFU-E from CD34+ enriched progenitor populations (in words): stimulated an increase in BFU-E
Erythroid progenitors
  growth of erythroid progenitors in the absence of Epo, adult blood: could not support the growth of erythroid progenitors in the absence of Epo
  erythroid progenitor number, adult blood, 5% O2 and 0.2 U/ml Epo (in words): stimulated further increases in erythroid progenitor number
CFU-E
  fold increase in CFU-E at 0.2 U/ml Epo and 5% O2: 2.1 fold
[1]
  reversal of inhibitory effect of SA on erythroid progenitors (in words): partially able to overcome the inhibitory effect of SA; also recorded: could partially reverse the SA toxicity

## HEMOLINK™: chemically crosslinked hemoglobin prepared by treating human hemoglobin with a polyaldehyde (O-raffinose)
BFU-E
  increase in BFU-E from CD34+ enriched progenitor populations (in words): stimulated an increase in BFU-E
Erythroid progenitors
  growth of erythroid progenitors in the absence of Epo, adult blood: could not support the growth of erythroid progenitors in the absence of Epo
  erythroid progenitor number, adult blood, 5% O2 and 0.2 U/ml Epo (in words): stimulated further increases in erythroid progenitor number
CFU-E
  fold increase in CFU-E at 0.2 U/ml Epo and 5% O2: 1.7 fold
[1]
  reversal of inhibitory effect of SA on erythroid progenitors (in words): unable to fully restore erythroid progenitor numbers
